In PMC7404261 (2020):

Assays:
[1] = tested on: dsDNA-G4 (DNA, duplex) CGGGAAAAGGCGCGCGGAAGGGGT/ACCCCTTCCGCGCGCCTTTTCCCG; test: ethidium bromide staining of nondenaturing gel; details: K+ (100 mM KCl annealing, 10 mM KCl gel); Tris/HCl pH 7.5 annealing; 1x TBE gel; 1 µg/mL EthBr after ThT staining
[2] = tested on: ssDNA-G4-Rv (DNA, single strand) ACCCCTTCCGCGCGCCTTTTCCCG; test: ethidium bromide staining of nondenaturing gel; details: K+ (100 mM KCl annealing, 10 mM KCl gel); Tris/HCl pH 7.5 annealing; 1x TBE gel; 1 µg/mL EthBr after ThT staining
[3] = tested on: ssDNA-G4-Fw (DNA, G4) CGGGAAAAGGCGCGCGGAAGGGGT; test: ThT staining of nondenaturing gel; details: K+ (100 mM KCl annealing, 10 mM KCl gel); Tris/HCl pH 7.5 annealing; 1x TBE gel; stained with 5 µM ThT
[4] = tested on: dsDNA-G4 (DNA, duplex) CGGGAAAAGGCGCGCGGAAGGGGT/ACCCCTTCCGCGCGCCTTTTCCCG; test: ThT staining of nondenaturing gel; details: K+ (100 mM KCl annealing, 10 mM KCl gel); Tris/HCl pH 7.5 annealing; 1x TBE gel; stained with 5 µM ThT
[5] = tested on: ssDNA-G4-Rv (DNA, single strand) ACCCCTTCCGCGCGCCTTTTCCCG; test: ThT staining of nondenaturing gel; details: K+ (100 mM KCl annealing, 10 mM KCl gel); Tris/HCl pH 7.5 annealing; 1x TBE gel; stained with 5 µM ThT
[6] = tested on: HpTYMS-G4-T (DNA, hairpin) GGGAAAAGGCGCGCGGAAGGGGTTTTTGGGGAAGGCGCGCGGAAAAGGG; test: ThT staining of nondenaturing gel; details: K+ (100 mM KCl annealing, 10 mM KCl gel); Tris/HCl pH 7.5 annealing; 1x TBE gel; stained with 5 µM ThT
[7] = tested on: HpTYMS-G4-T-WC (DNA, hairpin) CCCTTTTCCGCGCGCCTTCCCCTTTTTGGGGAAGGCGCGCGGAAAAGGG; test: ThT staining of nondenaturing gel; details: K+ (100 mM KCl annealing, 10 mM KCl gel); Tris/HCl pH 7.5 annealing; 1x TBE gel; stained with 5 µM ThT

Structure (SMILES)	binding [1]	binding [2]	binding [3]	binding [4]	binding [5]	binding [6]	binding [7]
CC[n+]1c(-c2ccccc2)c2cc(N)ccc2c2ccc(N)cc21	yes	yes					
Cc1ccc2c(c1)sc(-c1ccc(N(C)C)cc1)[n+]2C			yes	no	no	yes	yes
